From patent US8436023B2, “Cyclohexyl-azetidinyl antagonists of CCR2” (Janssen Pharmaceutica N.V., priority 2010, dated 2013)

Target: T1, CCR2 (Homo sapiens, UniProt P41597)
T1 construct: host or cells: THP-1 human monocytic cells
T1 sequence (P41597 1-360 isoform P41597-2): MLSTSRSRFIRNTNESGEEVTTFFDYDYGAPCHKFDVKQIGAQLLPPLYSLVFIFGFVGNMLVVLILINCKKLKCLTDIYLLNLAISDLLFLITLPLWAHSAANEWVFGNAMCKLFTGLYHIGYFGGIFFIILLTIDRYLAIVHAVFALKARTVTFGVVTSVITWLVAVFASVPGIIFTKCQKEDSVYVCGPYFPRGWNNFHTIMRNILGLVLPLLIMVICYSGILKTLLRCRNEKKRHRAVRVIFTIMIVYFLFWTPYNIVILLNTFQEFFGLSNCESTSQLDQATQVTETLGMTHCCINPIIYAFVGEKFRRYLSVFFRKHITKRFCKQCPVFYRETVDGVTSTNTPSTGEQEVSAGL
Assay: MCP-1 Receptor Binding Assay in THP-1 Cells
Conditions: 0.5 nM 125I labeled MCP-1, 2 hours at 30° C., less polar isomer tested where stated, read-out: Inhibition of MCP-1 Binding IC50, CCR2 Binding
Summary of the method: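 Whole THP-1 cells incubated 2 h at 30 °C with 0.5 nM 125I-MCP-1 and varying concentrations of test compound; bound radioactivity counted after filter harvesting. Where no IC50 obtained, % inhibition given at 25 μM.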

Row | Structure (SMILES) | IC50
1 | O=C(CNc1noc2ccc(OC(F)(F)F)cc12)NC1CN(C2CCC(c3ccc4c(c3)OCO4)CC2)C1 (stereo not shown) [Example 15, N-[1-(4-Benzo[1,3]dioxol-5-yl-cyclohexyl)-azetidin-3-yl]-2-(5-trifluoromethoxy-benzo[d]isoxazol-3-ylamino)-acetamide] | 10 nM
2 | CC(C)C1CCC(N2CC(NC(=O)CNc3n[nH]c4ccc(C(F)(F)F)cc34)C2)CC1 (stereo not shown) [Example 52, N-[1-(4-Isopropyl-cyclohexyl)-azetidin-3-yl]-2-(5-trifluoromethyl-1H-indazol-3-ylamino)-acet amide] | 370 nM
3 | CCOC(=O)C1CCC(N2CC(NC(=O)CNc3nn(C)c4ccc(OC(F)(F)F)cc34)C2)CC1 (single isomer, unassigned) [Example 58] | 45 nM
4 | COc1ccc(C2(O)CCC(N3CC(NC(=O)CNc4n[nH]c5ccc(C(F)(F)F)cc45)C3)CC2)cn1 (stereo not shown) [Example 44, N-{1-[4-Hydroxy-4-(6-methoxy-pyridin-3-yl)-cyclohexyl]-azetidin-3-yl}-2-(5-trifluoromethyl-1H-indazol-3-ylamino)-acetamide] | 16 nM
